Laboratory results from patent US12629419B2, “Prevention or mitigation of T-cell engaging agent-related adverse effects” (Hoffmann-La Roche Inc., priority 2020, dated 2026).
“Also recorded” adds a separate entry of the source.

What was measured:
CD4+ and CD8+ T cells [1] = experiment: CD20-TCB killing assay, inhibitors added after 18 hours: T cell activation; format: cell-based; conditions: 100 nM added at 18 h
Procedure: FIG. 34. In vitro killing assay set-up. Cell Trace™ Violet (CTV) labelled WSU DLCL2 tumor cells were co-cultured together with PBMCs [E:T=200′000:20′000] and stimulated with CD20-TCB for 18 h.
In this assay, CTV labelled WSU DLCL2 tumors cells were co-cultured with PBMCs in the presence of escalating doses of CD20-TCB for 18 hours.

[2] = system: CEA-TCB-induced cytokine release; experiment: CEA-TCB-induced cytokine release (Luminex, supernatants); conditions: 10 nM CEA-TCB; for CEA-TCB induced cytokine release: even at the lowest doses tested; for CEA-TCB-induced cytokine release: 66 h, fixed compound concentrations
Procedure: The levels of cytokines were measured by Luminex in the supernatants of the assay to determine the impact of the different compounds on CEA-TCB-induced cytokine release.

CD4+ and CD8+ T cells [3] = experiment: T cell activation (CD25, CD69 by flow cytometry) in CEA-TCB killing assay; format: cell-based; conditions: 10 nM CEA-TCB; for T cell activation triggered by the TCB: summary statement, also for target cell killing; for CD25 and CD69 expression on CD4+ and CD8+ T cells (T cell activation): 66 h, fixed compound concentrations; for expression of CD69 on CD8+ T cells / expression of CD25 on CD4+ T cells / expression of CD69 on CD4+ T cells / expression of CD25 on CD8+ T cells: 72 h; for expression of CD25 on CD4+ T cells / expression of CD69 on CD4+ T cells / expression of CD25 on CD8+ T cells: concentrations above 25 nM; for expression of CD25 on CD4+ T cells / expression of CD69 on CD4+ T cells: reduced from ~45%; for expression of CD25 on CD8+ T cells: reduced from ~75% (everolimus: ~70%)
CD4+ and CD8+ T cells [4] = experiment: T cell activation (CD25, CD69) in CD20-TCB killing assay; format: cell-based; conditions: 1 nM CD20-TCB; 24 h; inhibitor 0 nM to 1000 nM
Procedure: (§1) A similar experiment was conducted with another TCB. WSU DLCL2 cells were co-cultured together with PBMCs in the presence of 1 nM CD20-TCB (SEQ ID NOs 4-11, 24-35), and escalating sirolimus doses ranging from 0 nM to 1000 nM (FIG. 13).
A similar experiment was conducted with CD20-TCB.
A similar experiment was conducted with CD20-TCB. WSU DLCL2 cells were co-cultured together with PBMCs in the presence of 1 nM CD20-TCB, and escalating everolimus doses ranging from 0 nM to 1000 nM (FIG. 13).
A similar experiment was conducted with CD20-TCB. WSU DLCL2 cells were co-cultured together with PBMCs in the presence of 1 nM CD20-TCB, and escalating ruxolitinib doses ranging from 0 nM to 1000 nM (FIG. 13).
(§2) A similar experiment was conducted with another TCB. […] The killing of B cells was measured as a readout for the impact of the various compounds on TCB efficacy at 24 h (FIGS. 27 and 28). […] Lastly, the levels of cytokines (TNF-α, IFN-γ, IL-2, IL-6, IL-4, IL-10, GM-CSF and IL-1β) were analyzed by Luminex at assay endpoint to assess the impact of the different treatments on TCB-induced cytokine release (FIGS. 32 and 33).
(§3) At 24 hours, tumor cell killing was measured by flow cytometry by exclusion of dead CTV cells. The supernatants were collected and cytokines were measured by Luminex.

CTV WSU tumor cells = experiment: tumor cell killing by PGLALA and CD16 universal CAR-T cells; format: cell-based; conditions: 100 nM inhibitor, 24 hours
Procedure: FIG. 61. CTV labelled WSU tumor cell killing by PGLALA CAR-T cells (A) and CD16 CAR-T cells (B) in the presence and absence of 100 nM ruxolitinib or 100 nM sirolimus. PGLALA CAR-T cells and CD16 CAR-T cells were co-cultured together with CTV labelled WSU tumor cells (E:T=10:1) and escalating concentrations of anti-CD20 IgG with either PGLALA-Fc (for PGLALA CAR-T cells) or wild-type Fc (for CD16 CAR-T cells) in the presence and absence of 100 nM ruxolitinib (ruxo) or 100 nM sirolimus (siro). At 24 hours, the technical replicates were pooled and stained with a LIVE/DEAD™ Near-IR dye to allow exclusion of dead CTV labelled WSU DLCL2 tumor cells by flow cytometry. 1 representative donor.
To assess the impact of JAK inhibitor ruxolitinib and mTOR inhibitor sirolimus on cytokine release induced by CAR-T cells, we conducted a killing assay where PGLALA and CD16 universal CAR-T cells (CAR-T cells with a CAR comprising an anti-P329G-Fc scFv (binding to PGLALA Fc) or CD16 (binding to wild-type Fc)) were co-cultured with CTV WSU tumor cells in the presence of escalating concentrations of PGLALA Fc and wild-type Fc anti-CD20 IgG in medium supplemented with 100 nM ruxolitinib or 100 nM sirolimus. To verify whether ruxolitinib and sirolimus interfered with tumor cell killing by CAR-T cells, we measured killing of CTV WSU tumor cells by flow cytometry at 24 hours.

[5] = system: MKN45 NucLight Red (NLR) target cells; experiment: killing assay with PBMCs, MKN45 NLR target cells and CEA-TCB (Incucyte); format: cell-based; conditions: inhibitor doses 12.5 nM to 1 μM; 50 000 PBMCs: 5 000 target cells; Incucyte
WSU DLCL2 tumor cells = experiment: killing assay with PBMCs, CTV labelled WSU DLCL2 tumor cells and CD20-TCB; format: cell-based; conditions: 24 h; for CD20-TCB-mediated target cell killing: 1 nM CD20-TCB, inhibitor 0 nM to 1000 nM; for killing of B cells: WSU cells with PBMCs, CD20-TCB, fixed compound concentrations
Procedure: FIG. 13. In vitro killing assay set-up.
FIG. 14. […] At 24 hours, the tumor cells and PBMCs from technical replicates were pooled and stained with a LIVE/DEAD™ Near-IR dead cell dye to allow exclusion of dead CTV labelled WSU DLCL2 tumor cells by flow cytometry. Mean of n=3 donors+/−SEM.
as §1, §2, §3

[6] = system: MAGEA4-TCB-induced cytokine release; experiment: MAGEA4-TCB-induced cytokine release; format: cell-based; conditions: 8 nM MAGEA4-TCB; 72 hours; with increasing concentrations
Procedure: FIG. 45. Effect of escalating concentrations (c) of ruxolitinib on IFN-γ (A), IL-2 (B), TNF-α (C), GM-CSF (D), IL-6 (E), IL-1β (F), IL-8 (G), MCP-1 (H) and IL-10 (I) levels induced by 8 nM MAGEA4-TCB. At 72 hours, the supernatants were collected and cytokines were analyzed by cytometric bead array (CBA). Mean of technical replicates+/−SD for 1 representative donor.
FIG. 47. […] At 72 hours, the supernatants were collected and cytokines were analyzed by CBA. Mean of technical replicates+/−SD for 1 representative donor.
The effect of ruxolitinib on TCB-induced tumor cell killing and cytokine release was assessed using an additional TCB, the MAGEA4-TCB (SEQ ID NOs 37-56).

[7] = 1 nM CD20-TCB, three donors, between 18 hours and 44 hours
[8] = measured at 44 hours, escalating CD20-TCB

| SMILES | T cell activation (CD4+ and CD8+ T cells [1]; [7]) | T cell activation (CD4+ and CD8+ T cells [1]; [8]) | levels of IFN-γ, TNF-α, IL-2, IL-6, MCP-1, IL-8, IL-10, IL-4 and GM-CSF ([2]; assay endpoint 72 h (ruxolitinib 69 h), in comparison to samples without inhibitor) | CEA-TCB induced cytokine release [2] | CEA-TCB-induced cytokine release [2] | T cell activation triggered by the TCB (CD4+ and CD8+ T cells [3]) | CD25 and CD69 expression on CD4+ and CD8+ T cells (T cell activation) (CD4+ and CD8+ T cells [3]) | expression of CD69 on CD8+ T cells (CD4+ and CD8+ T cells [3]) | expression of CD25 on CD4+ T cells (CD4+ and CD8+ T cells [3]) [%] | expression of CD69 on CD4+ T cells (CD4+ and CD8+ T cells [3]) [%] | expression of CD25 on CD8+ T cells (CD4+ and CD8+ T cells [3]) [%] | T cell activation (CD25 and CD69 on CD4+ and CD8+ T cells) (CD4+ and CD8+ T cells [4]) | tumor cell killing by PGLALA CAR-T cells (CTV WSU tumor cells; PGLALA Fc anti-CD20 IgG) | tumor cell killing by CD16 CAR-T cells (CTV WSU tumor cells; wild-type Fc anti-CD20 IgG) | MKN45 NLR target cell killing by 10 nM CEA-TCB [5] | CD20-TCB-mediated target cell killing (WSU DLCL2 tumor cells) | killing of B cells (WSU DLCL2 tumor cells) | levels of IFN-γ, IL-2, TNF-α, IL-8, IL-6, MCP-1 and IL-10 [6] |
| --- | --- | --- | --- | --- | --- | --- | --- | --- | --- | --- | --- | --- | --- | --- | --- | --- | --- | --- |
| CO[C@H]1C[C@@H]2CC[C@@H](C)[C@@](O)(O2)C(=O)C(=O)N2CCCC[C@H]2C(=O)O[C@H]([C@H](C)C[C@@H]2CC[C@@H](O)[C@H](OC)C2)CC(=O)[C@H](C)/C=C(\C)[C@@H](O)[C@@H](OC)C(=O)[C@H](C)C[C@H](C)/C=C/C=C/C=C/1C [sirolimus, Sirolimus] | did not impact further | did not impact | very low | strongly downregulated; also recorded: strongly reduces | inhibited; also recorded: comparable to dexamethasone and dasatinib | does not fully inhibit | milder impact | did not affect | ~15 | ~25 | 40 | did not fully inhibit | neither sirolimus nor ruxolitinib prevented | neither sirolimus nor ruxolitinib prevented | only partially reduced | did not fully inhibit | did neither prevent | reduced |
| CO[C@H]1C[C@@H]2CC[C@@H](C)[C@@](O)(O2)C(=O)C(=O)N2CCCC[C@H]2C(=O)O[C@H]([C@H](C)C[C@@H]2CC[C@@H](OC(=O)C(C)(CO)CO)[C@H](OC)C2)CC(=O)[C@H](C)/C=C(\C)[C@@H](O)[C@@H](OC)C(=O)[C@H](C)C[C@H](C)/C=C/C=C/C=C/1C [temsirolimus, Temsirolimus] | did not impact further | did not impact |  | strongly downregulated; also recorded: strongly reduces | inhibited; also recorded: comparable to dexamethasone and dasatinib | does not fully inhibit | milder impact | did not affect | ~15 | ~25 | 40 | did not fully inhibit |  |  | only partially reduced | did not fully inhibit | did neither prevent | reduced |
